Data from patent publication US20260306476A1, “ANTIBACTERIAL COMPOUND PBT2” (priority 2022, published 2026).

What was measured:
[1] = human; 250 mg/day for up to 72 hours; NCT02249728; cited from earlier work
[2] = tested on: Neisseria meningitidis MC58 (B); experiment: MIC of PBT2 (broth and agar)
[3] = tested on: Neisseria gonorrhoeae WHO F; experiment: MIC of PBT2 alone (broth and agar); type: cell-based
Text: (§1) 13 multidrug resistant WHO strains of Neisseria gonorrhoeae were selected to cover antimicrobial resistance phenotypes to all the antibiotics currently used. MS11 is a laboratory strain and ATCC49226 is a CLSI standard MIC control strain (CLSI. 2022. Performance Standards for Antimicrobial Susceptibility Testing, 32nd Edition. Clinical and Laboratory Standards Institute which is hereby incorporated by reference in its entirety). The MICs (minimum inhibitory concentration) of PBT2 alone in the absence of zinc or a further antimicrobial agent against these Neisseria gonorrhoea strains are summarised in Table 1.

[4] = tested on: Neisseria gonorrhoeae WHO G; experiment: MIC of PBT2 alone (broth and agar); type: cell-based
Text: as §1

[5] = tested on: Neisseria gonorrhoeae WHO Y; experiment: MIC of PBT2 alone (broth and agar); type: cell-based
Text: as §1

[6] = tested on: Neisseria gonorrhoeae WHO L; experiment: MIC of PBT2 alone (broth and agar); type: cell-based
Text: as §1

[7] = tested on: Neisseria gonorrhoeae MS11; experiment: MIC of PBT2 alone (broth and agar); type: cell-based
Text: as §1

[8] = tested on: Neisseria gonorrhoeae WHO P; experiment: MIC of PBT2 alone (broth and agar); type: cell-based
Text: as §1

[9] = tested on: Neisseria gonorrhoeae WHO N; experiment: MIC of PBT2 alone (broth and agar); type: cell-based
Text: as §1

[10] = tested on: Neisseria gonorrhoeae WHO E; experiment: MIC of PBT2 alone (broth and agar); type: cell-based
Text: as §1

[11] = tested on: Neisseria gonorrhoeae WHO Z; experiment: MIC of PBT2 alone (broth and agar); type: cell-based
Text: as §1

[12] = tested on: Neisseria gonorrhoeae WHO M; experiment: MIC of PBT2 alone (broth and agar); type: cell-based
Text: as §1

[13] = tested on: Neisseria gonorrhoeae WHO C; experiment: MIC of PBT2 alone (broth and agar); type: cell-based
Text: as §1

[14] = tested on: Neisseria gonorrhoeae WHO X; experiment: MIC of PBT2 alone (broth and agar); type: cell-based
Text: as §1

[15] = tested on: Neisseria gonorrhoeae WHO O; experiment: MIC of PBT2 alone (broth and agar); type: cell-based
Text: as §1

[16] = tested on: Neisseria gonorrhoeae WHO K; experiment: MIC of PBT2 alone (broth and agar); type: cell-based
Text: as §1

[17] = tested on: Neisseria meningitidis PMC19 (W); experiment: MIC of PBT2 (broth and agar)
[18] = tested on: erythromycin-resistant group A Streptococcus (GAS); settings: in the absence of an antibiotic; cited from earlier work
[19] = tested on: Helicobacter pylori CH426; experiment: MIC of PBT2 alone (agar); type: cell-based
[20] = tested on: Helicobacter pylori 26695; experiment: MIC of PBT2 alone (agar); type: cell-based
Method: (§2) The MIC of PBT2 against four Helicobacter pylori 26695 strains was determined. The strains tested were sensitive to PBT2.

[21] = tested on: Helicobacter pylori CH428; experiment: MIC of PBT2 alone (agar); type: cell-based
[22] = tested on: Helicobacter pylori; experiment: Sensitivity across Helicobacter pylori strains; type: cell-based; settings: strains tested
Method: as §2

[23] = tested on: Neisseria gonorrhoeae strain WHO Z; experiment: MIC of Triton X-100 with/without PBT2; type: cell-based; settings: 0.156 mg/L (sub-MIC) PBT2
Text: Without wishing to be bound by theory, the inventors hypothesise that this may due to the fact PBT2 is a derivative of the iron chelator clioquinol and PBT2 has the capacity to chelate a range of heavy metals including iron. Genes encoding metal homeostasis proteins (blue dots) are presented in the volcano plot (FIG. 3). Metal homeostasis was previously identified as a crucial feature of gonococcal biology, and therefore it is postulated this may be an “Achilles' heel” with respect to Neisseria gonorrhoeae ionophore sensitivity. […] MpeR is an iron-repressed, AraC-like protein that regulates the mtr efflux locus (involved in antimicrobial susceptibility) in Neisseria gonorrhoeae. Up-regulation of mpeR (e. g. by PBT2) down-regulates MtrF and, in turn, would increase Neisseria gonorrhoeae sensitivity to the antimicrobial detergent, Triton X-100 (22). […] Thus, without wishing to be bound to theory, the inventors hypothesise that PBT2 may influence bacterial iron homeostasis and trigger general defence mechanisms, such as Mtr-mediated antimicrobial efflux, but the Mtr-system may be unable to protect against PBT2.

[24] = tested on: Neisseria meningitidis 8013 (C); experiment: MIC of PBT2 (broth and agar)
[25] = tested on: Neisseria gonorrhoeae strain WHO Z; experiment: Ex vivo Neisseria gonorrhoeae infection of human cervical (Pex) cells; type: cell-based
Text: FIG. 4: Chart indicating PBT2 can cure Neisseria gonorrhoeae infection of human cervical (Pex) cells. […] Ceftriaxone (CRO, positive control) is currently recommended for gonorrhoea treatment. Veh—0.1% DMSO vehicle control; UT—untreated; * p<0.0001 versus vehicle for CRO or PBT2 treatment.
To assess the ability of PBT2 to cure an established gonococcal infection in a human ex vivo system, primary human cervical epithelial (Pex) cells were challenged with Neisseria gonorrhoeae strain WHO Z for 90 min and then treated with 0.1% DMSO (vehicle control), PBT2 (0.016 mg/L to 4.695 mg/L), or ceftriaxone (0.5 mg/L, positive control) for 24 h. Viable gonococci were then enumerated. […] PBT2-induced Pex cell cytotoxicity was not observed during the assay.

In the case of CN(C)Cc1ccc2c(Cl)cc(Cl)c(O)c2n1 [PBT2, 5,7-dichloro-2-[(dimethylamino)methyl]quinolin-8-ol], the “plasma drug level (AUC)” value [1] is given as 1,660 ng*h/ml, the MIC ([2]; agar) is given as 0.039 µg/mL and the MIC ([2]; broth) is given as 0.156 µg/mL. It also gave an MIC ([3]; agar) of 0.312 µg/mL, an MIC ([3]; broth) of 0.156 µg/mL and an MIC ([4]; agar) of 0.312 µg/mL. For the same compound, the MIC ([4]; broth) was 0.156 µg/mL, the MIC ([5]; agar) was 0.625 µg/mL and the MIC ([5]; broth) was 0.156 µg/mL. For the same compound, the MIC ([6]; agar) was 0.625 µg/mL, the MIC ([6]; broth) was 0.156 µg/mL and the MIC ([7]; agar) was 0.625 µg/mL. The MIC ([7]; broth) was 0.156 µg/mL, the MIC ([8]; agar) was 0.625 µg/mL and the MIC ([8]; broth) was 0.312 µg/mL. The MIC ([9]; agar) was 0.625 µg/mL, the MIC ([9]; broth) was 0.156 µg/mL and the MIC ([10]; agar) was 0.312 µg/mL. For the same compound, the MIC ([10]; broth) was 0.156 µg/mL, the MIC ([11]; MIC concentration used in time-kill assay) was 0.313 µg/mL and the MIC ([11]; agar) was 0.625 µg/mL. It also gave an MIC ([11]; broth) of 0.312 µg/mL, an MIC ([12]; agar) of 0.625 µg/mL and an MIC ([12]; broth) of 0.312 µg/mL. The MIC ([13]; agar) was 0.625 µg/mL, the MIC ([13]; broth) was 0.312 µg/mL and the MIC ([14]; agar) was 0.625 µg/mL. The MIC ([14]; broth) was 0.156 µg/mL, the MIC ([15]; agar) was 0.625 µg/mL and the MIC ([15]; broth) was 0.156 µg/mL. The MIC ([16]; agar) was 0.625 µg/mL, the MIC ([16]; broth) was 0.312 µg/mL and the MIC ([17]; agar) was 0.078 µg/mL. The MIC ([17]; broth) was 0.156 µg/mL, the antibacterial activity [18] was “neither PBT2 nor zinc alone displayed antibacterial activity which would be suitable to treat an infection” and the MIC [19] was 1.25 µg/mL. The MIC [20] was 1.25 µg/mL, the MIC [21] was 2.5 µg/mL and the sensitivity [22] was “sensitive”. The “effect on sensitivity to Triton X-100” value [23] was “increased the sensitivity”, the MIC ([24]; agar) was 0.078 µg/mL and the MIC ([24]; broth) was 0.156 µg/mL. The “reduction in Neisseria gonorrhoeae survival” value ([25]; 24 h post-treatment, PBT2 0.016 to 4.695 mg/L, FIG. 4) was “dose-dependent reduction”, the “effectiveness versus ceftriaxone (0.5 mg/L)” value ([25]; >0.157 mg/L PBT2, 24 h) was “comparable effectiveness to that observed for the control antibiotic, ceftriaxone” and the p versus vehicle ([25]; survival at 24 h, FIG. 4, CRO 0.5 mg/L) was under 0.0001.
